Measured values taken from PubChem BioAssay (NCI).
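Tested at 5 concentrations; 48 h exposure; 96-well plates; endpoints linearly interpolated, else capped at highest concentration. TGI is the concentration that stops growth completely.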

Assays:
Assay in all cases: NCI anticancer screen, dose series, 48 h
[1] = test system: A549 NSCLC
[2] = test system: BT-549 breast
[3] = test system: HCT-116 colon
[4] = test system: MCF7 breast
[5] = test system: MDA-MB-231 breast
[6] = test system: NCI-H460 lung
[7] = test system: OVCAR-5 ovarian
[8] = test system: HL-60(TB) leukemia

Structure (SMILES)	TGI [1]	TGI [2]	TGI [3]	TGI [4]	TGI [5]	TGI [6]	TGI [7]	TGI [8]
CC[n+]1[b-](C(C)(C)C)n(/N=C(\C)C(C)(C)C)[b-](C(C)(C)C)[n+]1CC	> 100 µM	> 100 µM	> 100 µM	> 100 µM	> 100 µM	> 100 µM	> 100 µM	–
Cc1cc(S(=O)(=O)Nc2nc(N)n(C)n2)c(S)cc1Cl	> 10 µM	> 10 µM	> 10 µM	> 10 µM	> 10 µM	> 10 µM	> 10 µM	> 10 µM
Nc1ncnc2c1ncn2CC(OCP(=O)(O)O)Oc1ccccc1 (stereo not given)	> 100 µM	–	> 100 µM	> 100 µM	> 100 µM	–	> 100 µM	–
COC(CNC(=O)C(C)NC(=O)C(C)NC(=O)c1ccccc1)OC (stereo not given)	> 100 µM	> 100 µM	> 100 µM	> 100 µM	> 100 µM	> 100 µM	> 100 µM	–
CC(C)(C)OC(=O)C(C1NC(C(=O)O)C(C)(C)S1)N1C(=O)c2ccccc2C1=O (stereo not given)	> 100 µM	> 100 µM	> 100 µM	> 100 µM	> 100 µM	> 100 µM	> 100 µM	> 100 µM
Cc1sc(N=Nc2c(O)[nH]c3ccccc23)nc1-c1ccccc1	32.6 µM	41.5 µM	35.1 µM	45.1 µM	33.3 µM	42.2 µM	49.3 µM	25 µM
Cn1ncc2c(NCCc3ccccc3)nc(Cl)nc21	77.4 µM	78.4 µM	> 100 µM	> 100 µM	39.4 µM	31.1 µM	36.4 µM	–
COC(=O)C1=NN2c3ccccc3CN([C@@H](C)c3ccccc3)C(=O)[C@@H]2C1	> 100 µM	64.9 µM	> 100 µM	> 100 µM	> 100 µM	> 100 µM	> 100 µM	48.6 µM
Cc1cc2c3c(ccc4ncc(c43)CN2c2ccc(NS(C)(=O)=O)cc2)[nH]1	88.5 µM	> 100 µM	44.1 µM	> 100 µM	68.1 µM	> 100 µM	> 100 µM	> 100 µM
CC(=O)OCCn1c(Cc2ccc([N+](=O)[O-])cc2)nn(C(C)=O)c1=O	> 100 µM	> 100 µM	> 100 µM	> 100 µM	> 100 µM	> 100 µM	> 100 µM	> 100 µM
COc1ccc(-c2nc3ccc(C)cc3o2)c(OC)c1	> 67.4 µM	67.1 µM	35.8 µM	> 100 µM	50.5 µM	65.6 µM	42 µM	50 µM
C=CCC1(O)c2cccc(O)c2C(=O)c2c(O)cccc21	88.4 µM	60.7 µM	57.7 µM	> 100 µM	> 100 µM	> 100 µM	> 100 µM	47.5 µM
C[C@H](CCc1nc(C#N)c(N)o1)[C@H]1CC[C@H]2[C@@H]3[C@@H](O)CC4C[C@@H](O)CC[C@]4(C)[C@H]3C[C@@H](O)[C@]12C (stereo not given in full)	> 100 µM	25.3 µM	50 µM	> 95.4 µM	67.1 µM	54.9 µM	58.3 µM	> 26.9 µM
O=C(c1nsc(Cl)c1Cl)N1CCCCC1	> 100 µM	> 100 µM	> 100 µM	> 100 µM	> 100 µM	–	> 100 µM	> 100 µM
CC(=O)OC1CC(OC2C(O)CC(OC3C(O)CC(OC4CCC5(C)C(CCC6C5CC(O)C5(C)C(C7=CC(=O)OC7)CCC65O)C4)OC3C)OC2C)OC(C)C1O (stereo not given) (tested in a mixture with another compound)	0.0259 µM	0.201 µM	0.039 µM	0.216 µM	0.518 µM	0.0368 µM	0.12 µM	–
Cc1cccc(C)c1NC(=S)/N=C/C1=C(O)c2ccccc2C1=O	> 100 µM	> 28.8 µM	> 59.8 µM	> 100 µM	> 100 µM	> 100 µM	> 100 µM	> 100 µM
CC(C)CCNC(=O)c1ccc(CNC(=O)/C=C/c2ccc(-c3ccccc3[N+](=O)[O-])o2)cc1	> 100 µM	–	> 100 µM	> 100 µM	> 100 µM	> 100 µM	> 100 µM	> 100 µM
O=[N+]([O-])c1cc(Cl)ccc1S(=O)(=O)c1ccccc1	> 100 µM	> 100 µM	> 100 µM	> 100 µM	> 100 µM	> 100 µM	> 100 µM	> 100 µM
CNC(Cc1ccccc1)c1cccc(OC)c1O (stereo not given)	> 100 µM	> 100 µM	> 100 µM	–	> 100 µM	> 100 µM	> 100 µM	–
Nc1nc(Nc2ccc(Cl)cc2)sc1C(=O)c1cc2ccccc2oc1=O	> 100 µM	> 100 µM	> 100 µM	> 100 µM	> 100 µM	> 100 µM	> 100 µM	> 100 µM
OC[C@H]1CC(c2nn[nH]n2)[C@H](O)[C@@H]1O (stereo not given in full)	> 100 µM	> 100 µM	> 100 µM	> 100 µM	> 100 µM	> 100 µM	> 100 µM	> 100 µM
CCCNc1[nH]c(C(C)=O)c(N)c1C(=S)Nc1ccccc1	> 100 µM	68.4 µM	> 100 µM	45.4 µM	> 100 µM	> 100 µM	> 100 µM	> 100 µM
CC(=O)Oc1ccc(-c2cc3ccccc3oc2=O)cc1OC(C)=O	94.7 µM	> 100 µM	> 100 µM	> 100 µM	> 100 µM	> 100 µM	> 100 µM	7.48 µM
CC(C)(C)OC(=O)C1/C(=C/CO)CN1C(=O)OC(C)(C)C (stereo not given)	> 100 µM	> 100 µM	> 100 µM	> 100 µM	–	> 100 µM	> 100 µM	> 100 µM
CS(=O)(=O)C(=Cc1ccccc1Cl)S(C)(=O)=O	> 100 µM	> 100 µM	> 100 µM	> 100 µM	> 100 µM	> 100 µM	> 100 µM	> 100 µM
CNC(=O)N(CCC#N)CCN(CCN(C(=O)NC)c1ccccc1)C(=O)NC	> 100 µM	> 100 µM	> 100 µM	> 100 µM	> 100 µM	> 100 µM	> 100 µM	–
